Assay results as given in patent US11981658B2, “Substituted aminopyridine compounds as EGFR inhibitors” (YUHAN CORPORATION, priority 2021, dated 2024).
Read-outs that look alike come from different tables or passages of the source.

Legend:
EGFR Del19/T790M/C797S = EGFR Del19/T790M/C797S (Homo sapiens, UniProt P00533, C797S/DEL746-750/T790M); assay: Biochemical EGFR kinase inhibition assay (Lance Ultra TR-FRET), triple mutant del19/T790M/C797S
Outline: (§1)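 Step 1: compound in kinase buffer, 0.003–10 μM. Step 2: kinase reaction 1 h at room temperature. Step 4: TR-FRET read at 615/665 nm; IC50 calculated.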

EGFR L858R/T790M/C797S = EGFR L858R/T790M/C797S (Homo sapiens, UniProt P00533, C797S/L858R/T790M); assay: Biochemical EGFR kinase inhibition assay (Lance Ultra TR-FRET), triple mutant L858R/T790M/C797S
EGFR L858R/T790M/C797S, sequence (P00533 25-1210 T790M/C797S/L858R): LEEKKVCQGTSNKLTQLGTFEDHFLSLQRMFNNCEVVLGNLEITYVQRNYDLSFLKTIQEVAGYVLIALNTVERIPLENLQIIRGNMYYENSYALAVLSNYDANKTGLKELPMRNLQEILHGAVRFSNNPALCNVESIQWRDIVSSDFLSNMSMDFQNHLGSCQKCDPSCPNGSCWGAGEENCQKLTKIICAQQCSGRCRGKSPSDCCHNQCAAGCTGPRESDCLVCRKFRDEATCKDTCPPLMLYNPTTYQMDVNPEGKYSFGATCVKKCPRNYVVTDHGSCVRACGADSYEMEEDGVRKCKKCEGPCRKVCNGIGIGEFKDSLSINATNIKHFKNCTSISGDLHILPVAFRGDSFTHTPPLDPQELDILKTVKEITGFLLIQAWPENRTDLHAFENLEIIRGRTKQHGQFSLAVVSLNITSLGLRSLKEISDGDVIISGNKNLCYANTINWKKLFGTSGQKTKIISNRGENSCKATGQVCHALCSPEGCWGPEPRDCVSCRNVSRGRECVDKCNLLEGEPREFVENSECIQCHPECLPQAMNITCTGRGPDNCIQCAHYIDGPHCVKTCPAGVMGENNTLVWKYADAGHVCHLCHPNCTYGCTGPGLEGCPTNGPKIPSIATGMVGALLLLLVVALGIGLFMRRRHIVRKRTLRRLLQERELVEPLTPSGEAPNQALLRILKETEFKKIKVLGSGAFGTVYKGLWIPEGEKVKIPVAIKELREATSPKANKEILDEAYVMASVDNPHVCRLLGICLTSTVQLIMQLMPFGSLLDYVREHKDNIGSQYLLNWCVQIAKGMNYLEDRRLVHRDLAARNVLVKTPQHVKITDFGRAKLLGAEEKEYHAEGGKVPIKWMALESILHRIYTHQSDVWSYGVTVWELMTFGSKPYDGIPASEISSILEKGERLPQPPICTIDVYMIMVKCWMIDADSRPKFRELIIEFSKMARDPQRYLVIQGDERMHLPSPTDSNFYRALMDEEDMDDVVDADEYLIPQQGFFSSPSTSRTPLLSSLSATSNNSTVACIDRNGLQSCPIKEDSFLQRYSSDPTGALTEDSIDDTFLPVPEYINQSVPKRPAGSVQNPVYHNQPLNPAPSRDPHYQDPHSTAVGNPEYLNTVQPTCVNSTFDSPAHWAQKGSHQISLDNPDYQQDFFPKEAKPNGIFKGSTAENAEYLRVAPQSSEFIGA
Outline: as §1

EGFR Del19/C797S = EGFR Del19/C797S (Homo sapiens, UniProt P00533, C797S/DEL746-750); assay: Biochemical EGFR kinase inhibition assay (Lance Ultra TR-FRET), double mutant del19/C797S
Outline: as §1

EGFR L858R/C797S = EGFR L858R/C797S (Homo sapiens, UniProt P00533, C797S/L858R); assay: Biochemical EGFR kinase inhibition assay (Lance Ultra TR-FRET), double mutant L858R/C797S
EGFR L858R/C797S, sequence (P00533 25-1210 C797S/L858R): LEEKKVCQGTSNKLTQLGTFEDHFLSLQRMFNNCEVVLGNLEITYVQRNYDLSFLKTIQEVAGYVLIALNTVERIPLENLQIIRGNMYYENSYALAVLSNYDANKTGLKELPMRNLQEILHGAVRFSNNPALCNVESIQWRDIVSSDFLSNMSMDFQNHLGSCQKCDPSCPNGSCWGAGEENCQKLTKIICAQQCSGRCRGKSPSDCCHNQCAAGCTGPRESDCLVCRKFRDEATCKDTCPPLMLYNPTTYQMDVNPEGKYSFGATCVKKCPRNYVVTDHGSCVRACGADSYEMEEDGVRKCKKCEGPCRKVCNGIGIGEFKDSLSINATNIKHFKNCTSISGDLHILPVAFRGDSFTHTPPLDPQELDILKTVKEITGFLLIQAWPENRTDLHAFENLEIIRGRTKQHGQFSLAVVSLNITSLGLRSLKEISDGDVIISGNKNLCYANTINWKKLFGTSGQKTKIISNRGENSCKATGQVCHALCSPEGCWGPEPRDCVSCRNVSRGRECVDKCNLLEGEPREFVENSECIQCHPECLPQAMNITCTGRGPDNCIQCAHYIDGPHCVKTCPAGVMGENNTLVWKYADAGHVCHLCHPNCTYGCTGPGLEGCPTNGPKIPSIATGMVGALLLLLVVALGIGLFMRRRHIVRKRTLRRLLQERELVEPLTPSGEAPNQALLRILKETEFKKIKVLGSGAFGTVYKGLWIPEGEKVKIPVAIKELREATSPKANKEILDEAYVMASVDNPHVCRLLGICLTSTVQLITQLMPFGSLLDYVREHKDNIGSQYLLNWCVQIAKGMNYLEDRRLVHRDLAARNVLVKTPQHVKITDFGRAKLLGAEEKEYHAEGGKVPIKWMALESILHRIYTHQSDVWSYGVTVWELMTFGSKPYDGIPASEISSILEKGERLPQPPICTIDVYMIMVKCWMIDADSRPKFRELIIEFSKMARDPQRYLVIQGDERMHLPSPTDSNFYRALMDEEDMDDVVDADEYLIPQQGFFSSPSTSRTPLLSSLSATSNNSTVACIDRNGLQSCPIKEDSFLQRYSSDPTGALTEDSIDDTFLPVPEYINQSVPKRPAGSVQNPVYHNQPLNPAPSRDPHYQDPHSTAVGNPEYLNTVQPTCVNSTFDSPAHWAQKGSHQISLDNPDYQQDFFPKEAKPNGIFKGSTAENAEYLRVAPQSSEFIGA
Outline: as §1

EGFR wildtype (WT) = EGFR wildtype (WT) (Homo sapiens, UniProt P00533); assay: Biochemical EGFR kinase inhibition assay (Lance Ultra TR-FRET), wildtype
EGFR wildtype (WT), sequence (P00533 25-1210): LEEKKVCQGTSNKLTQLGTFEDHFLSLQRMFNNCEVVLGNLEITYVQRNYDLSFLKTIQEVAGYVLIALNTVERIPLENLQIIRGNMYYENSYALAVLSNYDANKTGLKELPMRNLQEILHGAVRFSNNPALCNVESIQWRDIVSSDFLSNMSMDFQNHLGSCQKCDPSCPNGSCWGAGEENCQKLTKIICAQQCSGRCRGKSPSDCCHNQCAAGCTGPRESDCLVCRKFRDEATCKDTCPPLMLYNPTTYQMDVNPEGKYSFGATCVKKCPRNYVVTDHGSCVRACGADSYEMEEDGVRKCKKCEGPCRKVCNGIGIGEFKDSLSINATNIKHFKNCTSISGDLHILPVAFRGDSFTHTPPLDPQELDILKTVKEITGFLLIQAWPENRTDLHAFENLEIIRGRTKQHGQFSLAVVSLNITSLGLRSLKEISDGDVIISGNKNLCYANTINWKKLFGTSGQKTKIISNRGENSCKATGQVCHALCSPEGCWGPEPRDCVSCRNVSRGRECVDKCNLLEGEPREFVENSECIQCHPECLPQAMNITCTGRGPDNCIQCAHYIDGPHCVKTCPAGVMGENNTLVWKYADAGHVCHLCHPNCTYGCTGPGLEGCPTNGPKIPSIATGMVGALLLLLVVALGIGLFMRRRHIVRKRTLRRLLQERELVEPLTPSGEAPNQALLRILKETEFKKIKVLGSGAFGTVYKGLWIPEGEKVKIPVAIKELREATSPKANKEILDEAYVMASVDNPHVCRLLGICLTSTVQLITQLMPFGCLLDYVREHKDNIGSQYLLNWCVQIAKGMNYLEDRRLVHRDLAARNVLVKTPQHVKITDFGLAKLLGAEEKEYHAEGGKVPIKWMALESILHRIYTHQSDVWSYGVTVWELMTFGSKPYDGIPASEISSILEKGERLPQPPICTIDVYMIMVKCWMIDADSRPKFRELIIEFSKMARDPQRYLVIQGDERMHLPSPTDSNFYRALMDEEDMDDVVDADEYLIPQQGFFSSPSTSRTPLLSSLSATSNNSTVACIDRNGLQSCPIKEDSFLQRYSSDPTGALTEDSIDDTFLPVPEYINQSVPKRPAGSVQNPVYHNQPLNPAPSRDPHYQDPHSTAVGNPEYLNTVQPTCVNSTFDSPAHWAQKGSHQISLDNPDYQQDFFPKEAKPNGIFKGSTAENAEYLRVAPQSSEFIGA
Outline: as §1

[1] = IC50 Del19/T790M/C797S (nM), 100 μM ATP
[2] = Km ATP, read-out: IC50 Del19/T790M/C797S (nM), Km ATP
[3] = IC50 L858R/T790M/C797S (nM), 100 μM ATP
[4] = Km ATP, read-out: IC50 L858R/T790M/C797S (nM), Km ATP
[5] = IC50 Del19/C797S (nM), 100 μM ATP
[6] = Km ATP, read-out: IC50 Del19/C797S (nM), Km ATP
[7] = IC50 L858R/C797S (nM), 100 μM ATP
[8] = Km ATP, read-out: IC50 L858R/C797S (nM), Km ATP
[9] = Km ATP, read-out: IC50 WT (nM), Km ATP

EGFR Del19/T790M/C797S, sequence (P00533 with tags, fused parts or gaps DEL746-750/T790M/C797S): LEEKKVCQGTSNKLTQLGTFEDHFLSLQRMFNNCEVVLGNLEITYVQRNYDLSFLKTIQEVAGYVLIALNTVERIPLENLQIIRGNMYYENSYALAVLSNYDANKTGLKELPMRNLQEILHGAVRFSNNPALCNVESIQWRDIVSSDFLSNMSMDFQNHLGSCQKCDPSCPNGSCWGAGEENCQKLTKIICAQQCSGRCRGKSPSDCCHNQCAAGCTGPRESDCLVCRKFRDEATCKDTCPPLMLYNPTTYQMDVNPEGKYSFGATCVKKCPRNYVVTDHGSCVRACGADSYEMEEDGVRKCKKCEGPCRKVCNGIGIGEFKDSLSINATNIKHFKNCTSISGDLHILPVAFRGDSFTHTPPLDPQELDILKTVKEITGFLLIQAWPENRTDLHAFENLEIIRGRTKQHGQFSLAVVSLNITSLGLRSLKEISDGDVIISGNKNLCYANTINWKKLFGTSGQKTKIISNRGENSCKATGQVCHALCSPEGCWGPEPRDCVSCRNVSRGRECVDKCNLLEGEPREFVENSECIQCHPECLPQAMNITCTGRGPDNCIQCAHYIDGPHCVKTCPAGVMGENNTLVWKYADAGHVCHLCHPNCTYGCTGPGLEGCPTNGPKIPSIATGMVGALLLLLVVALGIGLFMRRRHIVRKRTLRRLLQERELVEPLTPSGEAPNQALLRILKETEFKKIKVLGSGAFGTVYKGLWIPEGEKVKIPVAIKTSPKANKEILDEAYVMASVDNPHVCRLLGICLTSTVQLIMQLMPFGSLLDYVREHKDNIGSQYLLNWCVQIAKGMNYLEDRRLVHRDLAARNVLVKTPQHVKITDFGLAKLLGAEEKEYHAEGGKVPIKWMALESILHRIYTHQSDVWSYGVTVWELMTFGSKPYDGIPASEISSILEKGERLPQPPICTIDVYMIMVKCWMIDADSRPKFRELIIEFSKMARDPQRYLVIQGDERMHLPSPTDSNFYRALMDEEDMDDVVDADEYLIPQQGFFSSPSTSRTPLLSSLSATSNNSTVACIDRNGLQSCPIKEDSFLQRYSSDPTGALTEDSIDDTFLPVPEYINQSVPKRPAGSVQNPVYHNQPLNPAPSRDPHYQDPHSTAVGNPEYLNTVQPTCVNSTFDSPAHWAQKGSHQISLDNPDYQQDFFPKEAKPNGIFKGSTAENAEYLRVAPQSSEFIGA

IC50 (EGFR Del19/T790M/C797S; [1]) [nM]	IC50 (EGFR Del19/T790M/C797S; [2]) [nM]	IC50 (EGFR L858R/T790M/C797S; [3]) [nM]	IC50 (EGFR L858R/T790M/C797S; [4]) [nM]	IC50 (EGFR Del19/C797S; [5]) [nM]	IC50 (EGFR Del19/C797S; [6]) [nM]	IC50 (EGFR L858R/C797S; [7]) [nM]	IC50 (EGFR L858R/C797S; [8]) [nM]	IC50 (EGFR wildtype (WT); IC50 WT (nM), 100 μM ATP) [nM]	IC50 (EGFR wildtype (WT); [9]) [nM]	Compound
1.2	1.6	1.6	0.8	3.7	4.9	77.8	12.8	7620	44.2	CC1(CO)CCN(c2cc(Nc3ccnc(-c4cnn(S(=O)(=O)C5CC5)c4)n3)ncc2C#CC2(O)CCC2)CC1 [Example 351, 1-((6-((2-(1-(Cyclopropylsulfonyl)-1H-pyrazol-4-yl)pyrimidin-4-yl)amino)-4-(4-(hydroxymethyl)-4-methylpiperidin-1-yl)pyridin-3-yl)ethynyl)cyclobutan-1-ol]
0.3	0.3	0.2	0.1	0.5	0.6	9.5	1.6	820	5.5	CC1(CO)CCN(c2cc(Nc3ccnc(-c4cnn(S(=O)(=O)C5CC5)c4)n3)ncc2C#CC2COC2)CC1 [Example 352, (1-(2-((2-(1-(Cyclopropylsulfonyl)-1H-pyrazol-4-yl)pyrimidin-4-yl)amino)-5-(oxetan-3-ylethynyl)pyridin-4-yl)-4-methylpiperidin-4-yl)methanol]
0.2	0.2	0.2	0.1	0.6	1	16.6	3.3	> 10000	11.3	O=S(=O)(C1CC1)n1cc(-c2nccc(Nc3cc(N[C@H]4CC[C@@H](O)CC4)c(C#CC4COC4)cn3)n2)cn1 [Example 353, (1s,4s)-4-((2-((2-(1-(Cyclopropylsulfonyl)-1H-pyrazol-4-yl)pyrimidin-4-yl)amino)-5-(oxetan-3-ylethynyl)pyridin-4-yl)amino)cyclohexan-1-ol]
0.2	0.2	0.2	0.1	0.5	0.3	8.6	0.8	1630	5.1	CC1(CO)CCN(c2cc(Nc3ccnc(-c4cnn(S(=O)(=O)C5CC5)c4)n3)ncc2C#CC2(O)COC2)CC1 [Example 354, 3-((6-((2-(1-(Cyclopropylsulfonyl)-1H-pyrazol-4-yl)pyrimidin-4-yl)amino)-4-(4-(hydroxymethyl)-4-methylpiperidin-1-yl)pyridin-3-yl)ethynyl)oxetan-3-ol]
0.2	0.2	0.2	0.1	0.4	0.2	7.4	0.5	1740	4.8	CC1(CO)CCN(c2cc(Nc3ccnc(-c4cnn(S(=O)(=O)C5CC5)c4)n3)ncc2C#CC2(O)CCOC2)CC1 (stereo not shown) [Example 355, 3-((6-((2-(1-(Cyclopropylsulfonyl)-1H-pyrazol-4-yl)pyrimidin-4-yl)amino)-4-(4-(hydroxymethyl)-4-methylpiperidin-1-yl)pyridin-3-yl)ethynyl)tetrahydrofuran-3-ol]
0.2	0.2	0.3	0.1	0.9	0.6	24.5	2	5310	20.1	O=S(=O)(C1CC1)n1cc(-c2nccc(Nc3cc(NC4CCC(O)CC4)c(C#CC4(O)CCOC4)cn3)n2)cn1 (stereo not shown) [Example 356, 3-((6-((2-(1-(Cyclopropylsulfonyl)-1H-pyrazol-4-yl)pyrimidin-4-yl)amino)-4-(((1 s, 4s)-4-hydroxycyclohexyl)amino)pyridin-3-yl)ethynyl)tetrahydrofuran-3-ol]
0.3	0.2	0.4	0.1	1.5	1.4	14	1.5	4710	9.2	CC1(CO)CCN(c2cc(Nc3ccnc(-c4cnn(S(=O)(=O)C5CC5)c4)n3)ncc2C#CC2(O)CCCOC2)CC1 (stereo not shown) [Example 357, 3-((6-((2-(1-(Cyclopropylsulfonyl)-1H-pyrazol-4-yl)pyrimidin-4-yl)amino)-4-(4-(hydroxymethyl)-4-methylpiperidin-1-yl)pyridin-3-yl)ethynyl)tetrahydro-2H-pyran-3-ol]
1.7	1.2	1.6	0.7	3.7	1.9	30.2	3.8	6280	22.9	CC1(C#Cc2cnc(Nc3ccnc(-c4cnn(S(=O)(=O)C5CC5)c4)n3)cc2N2CCC(C)(CO)CC2)CC1 [Example 358, (1-(2-((2-(1-(Cyclopropylsulfonyl)-1H-pyrazol-4-yl)pyrimidin-4-yl)amino)-5-((1-methylcyclopropyl)ethynyl)pyridin-4-yl)-4-methylpiperidin-4-yl)methanol]
1.6	0.9	1.5	0.4	2.6	2.2	55.1	3.6	> 10000	26.7	CC1(C#Cc2cnc(Nc3ccnc(-c4cnn(S(=O)(=O)C5CC5)c4)n3)cc2N[C@H]2CC[C@@H](O)CC2)CC1 [Example 359, (1s,4s)-4-((2-((2-(1-(Cyclopropylsulfonyl)-1H-pyrazol.-4-yl)pyrimidin-4-yl)amino)-5-((1-methylcyclopropyl)ethynyl)pyridin-4-yl)amino)cyclohexan-1-ol]
1.1	0.8	0.9	0.3	2.7	2.3	7.7	2.5	1130	3.8	CN1CCN(Cc2ccc(C#Cc3cnc(Nc4ccnc(-c5cnn(S(=O)(=O)C6CC6)c5)n4)cc3N[C@H]3CC[C@@H](CO)CC3)cc2)CC1 [Example 360, ((1s,4s)-4-((2-((2-(1-(Cyclopropylsulfonyl)-1H-pyrazol-4-yl)pyrimidin-4-yl)amino)-5-((4-((4-methylpiperazin-1-yl)methyl)phenyl)ethynyl)pyridin-4-yl)amino)cyclohexyl)methanol]
0.7		1.5		4.3		468		> 10000		CN1CCN(Cc2ccc(C#Cc3cnc(Nc4ccnc(-c5cnn(S(=O)(=O)C6CC6)c5)n4)cc3NC[C@H]3CC[C@H](O)CC3)cc2)CC1 [Example 361, (1 r,4r)-4-(((2-((2-(1-(Cyclopropylsulfonyl)-1H-pyrazol-4-yl)pyrimidin-4-yl)amino)-5-((4-((4-methylpiperazin-1-yl)methyl)phenyl)ethynyl)pyridin-4-yl)amino)methyl)cyclohexan-1-ol]
0.7	0.5	0.6	0.1	1.7	1.1	3.2	0.9	4900	10.7	CN1CCN(Cc2ccc(C#Cc3cnc(Nc4ccnc(-c5cnn(S(=O)(=O)C6CC6)c5)n4)cc3N[C@H]3CC[C@]4(CCC(=O)N4)CC3)cc2)CC1 [Example 362, (5s,8s)-8-((2-((2-(1-(Cyclopropylsulfonyl)-1H-pyrazol-4-yl)pyrimidin-4-yl)amino)-5-((4-((4-methylpiperazin-1-yl)methyl)phenyl)ethynyl)pyridin-4-yl)amino)-1-azaspiro[4.5]decan-2-one]
1.2		2.4		8.2		94.9		> 10000		CN1CCN(Cc2ccc(C#Cc3cnc(Nc4ccnc(-c5cnn(S(=O)(=O)C6CC6)c5)n4)cc3NC[C@H]3CC[C@](C)(O)CC3)cc2)CC1 [Example 363, (1r,4r)-4-(((2-((2-(1-(Cyclopropylsulfonyl)-1H-pyrazol-4-yl)pyrimidin-4-yl)amino)-5-((4-((4-methylpiperazin-1-yl)methyl)phenyl)ethynyl)pyridin-4-yl)amino)methyl)-1-methylcyclohexan-1-ol]
0.3	0.2	0.6	0.1	1.3	1.4	12.9	2.1	2530	7.5	CC1(O)CCN(c2cc(Nc3ccnc(-c4cnn(S(=O)(=O)C5CC5)c4)n3)ncc2C#Cc2ncc(CN3CCOCC3)cn2)CC1 [Example 364, 1-(2-((2-(1-(Cyclopropylsulfonyl)-1H-pyrazol-4-yl)pyrimidin-4-yl)amino)-5-((5-(morpholinomethyl)pyrimidin-2-yl)ethynyl)pyridin-4-yl)-4-methylpiperidin-4-ol]
